# Assay results: ChEMBL document CHEMBL3745710, “Synthesis, antibacterial and anti-MRSA activity, in vivo toxicity and a structure-activity relationship study of a quinoline thiourea” (Bioorg Med Chem Lett, 2016)
# Active and inactive are the calls of the source. The calls are words filed in the database; no cut-off is given here.
# Columns and labels:
# [1] = test system: Staphylococcus aureus; experiment: Antibacterial activity against Staphylococcus aureus NCIMB 12702 after 24 hrs by serial dilution method; format: functional; settings: for MIC50 / MIC90 / MIC80: Staphylococcus aureus, NCIMB 12702, 24 h
# [2] = test system: Escherichia coli; experiment: Antibacterial activity against Escherichia coli NCIMB 9485 after 24 hrs by serial dilution method; format: functional; settings: for MIC50 / MIC90 / MIC80: NCIMB 9485, 24 h
# [3] = test system: Pseudomonas aeruginosa; experiment: Antibacterial activity against Pseudomonas aeruginosa ATCC 10145 after 24 hrs by serial dilution method; format: functional, organism-based
# [4] = Toxicity in sixth development stage of Galleria mellonella larvae assessed as survival rate at 1 ug/ml after 24 hrs; format: organism-based; settings: in vivo
# [5] = Toxicity in sixth development stage of Galleria mellonella larvae assessed as survival rate at 50 ug/ml after 24 hrs; format: organism-based; settings: in vivo
# [6] = test system: Staphylococcus aureus; experiment: Antibacterial activity against methicillin-resistant Staphylococcus aureus after 24 hrs by serial dilution method; format: functional
# [7] = Toxicity in sixth development stage of Galleria mellonella larvae assessed as survival rate at 1 ug/ml after 48 hrs; format: organism-based; settings: in vivo
# [8] = Toxicity in sixth development stage of Galleria mellonella larvae assessed as survival rate at 50 ug/ml after 72 hrs; format: organism-based; settings: in vivo
# [9] = Toxicity in sixth development stage of Galleria mellonella larvae assessed as survival rate at 10 ug/ml after 24 hrs; format: organism-based; settings: in vivo
# [10] = test system: Galleria mellonella; experiment: Toxicity in sixth development stage of Galleria mellonella larvae assessed as larvae pupation at 1 to 1000 ug/ml after 7 days relative to control; format: organism-based; settings: in vivo, 168 h
# [11] = Toxicity in sixth development stage of Galleria mellonella larvae assessed as survival rate at 1000 ug/ml after 72 hrs; format: organism-based; settings: in vivo
# [12] = Toxicity in sixth development stage of Galleria mellonella larvae assessed as survival rate at 10 ug/ml after 72 hrs; format: organism-based; settings: in vivo
# [13] = Toxicity in sixth development stage of Galleria mellonella larvae assessed as survival rate at 100 ug/ml after 72 hrs; format: organism-based; settings: in vivo
# [14] = Toxicity in sixth development stage of Galleria mellonella larvae assessed as survival rate at 100 ug/ml after 48 hrs; format: organism-based; settings: in vivo
# [15] = Toxicity in sixth development stage of Galleria mellonella larvae assessed as survival rate at 1000 ug/ml after 24 hrs; format: organism-based; settings: in vivo
# [16] = Toxicity in sixth development stage of Galleria mellonella larvae assessed as survival rate at 10 ug/ml after 48 hrs; format: organism-based; settings: in vivo
# [17] = Toxicity in sixth development stage of Galleria mellonella larvae assessed as survival rate at 50 ug/ml after 48 hrs; format: organism-based; settings: in vivo
# [18] = Toxicity in sixth development stage of Galleria mellonella larvae assessed as survival rate at 100 ug/ml after 24 hrs; format: organism-based; settings: in vivo
# [19] = Toxicity in sixth development stage of Galleria mellonella larvae assessed as survival rate at 1 ug/ml after 72 hrs; format: organism-based; settings: in vivo
# [20] = Toxicity in sixth development stage of Galleria mellonella larvae assessed as survival rate at 1000 ug/ml after 48 hrs; format: organism-based; settings: in vivo
compound,measurement,setting,value
FC(F)(F)c1cc(NC(=S)NC2CCCCC2)cc(C(F)(F)F)c1,MIC50,[1],135 µM
same,MIC90,[1],> 270 µM
same,MIC50,[2],101 µM
same,MIC90,[2],> 270 µM
same,MIC,[3],inactive
C=C[C@H]1CN2CC[C@H]1C[C@H]2[C@@H](NC(=S)Nc1cc(C(F)(F)F)cc(C(F)(F)F)c1)c1ccnc2ccc(OC)cc12,survival at 24 h,[4],100%
same,MIC50,[1],3.95 µM
same,MIC80,[1],7.9 µM
same,MIC90,[1],10.5 µM
same,survival at 24 h,[5],100%
same,MIC50,[6],11.4 µM
same,MIC90,[6],17.7 µM
same,survival at 48 h,[7],97%
same,survival at 72 h,[8],100%
same,MIC50,[2],2.63 µM
same,MIC80,[2],5.26 µM
same,MIC90,[2],7.9 µM
same,survival at 24 h,[9],100%
same,Activity,[10],Non-toxic
same,survival at 72 h,[11],100%
same,survival at 72 h,[12],100%
same,survival at 72 h,[13],100%
same,MIC,[3],inactive
same,survival at 48 h,[14],100%
same,survival at 24 h,[15],100%
same,survival at 48 h,[16],100%
same,survival at 48 h,[17],100%
same,survival at 24 h,[18],100%
same,survival at 72 h,[19],97%
same,survival at 48 h,[20],100%
CNC(=S)Nc1cc(C(F)(F)F)cc(C(F)(F)F)c1,MIC,[1],inactive
same,MIC,[2],inactive
same,MIC,[3],inactive
CCC1CN2CCC1C[C@@H]2[C@@H](Oc1nnc(O[C@@H](c2ccnc3ccc(OC)cc23)[C@H]2CC3CCN2CC3CC)c2ccccc12)c1ccnc2ccc(OC)cc12 (stereo partly drawn),MIC90,[1],189 µM
same,MIC90,[2],> 200 µM
same,MIC,[3],inactive
CCC1CN2CCC1CC2[C@@H](OC(=O)c1ccc(Cl)cc1)c1ccnc2ccc(OC)cc12 (stereo partly drawn),MIC90,[1],79.4 µM
same,MIC90,[2],> 200 µM
same,MIC,[3],inactive
COC(=O)[C@@H]1C[C@H](NC(=S)Nc2cc(C(F)(F)F)cc(C(F)(F)F)c2)CN1,MIC90,[1],> 200 µM
same,MIC90,[2],> 200 µM
same,MIC,[3],inactive
CN[C@@H](CC(C)C)C(=O)N[C@H]1C(=O)N[C@@H](CC(N)=O)C(=O)N[C@H]2C(=O)N[C@H]3C(=O)N[C@H](C(=O)N[C@@H](C(=O)O)c4cc(O)cc(O)c4-c4cc3ccc4O)[C@H](O)c3ccc(c(Cl)c3)Oc3cc2cc(c3O[C@H]2O[C@@H](CO)[C@H](O)[C@@H](O)[C@@H]2O[C@@H]2C[C@@](C)(N)[C@@H](O)[C@@H](C)O2)Oc2ccc(cc2Cl)[C@H]1O [listing 1 of 2 here],MIC90,[6],1.35 µM
FC(F)(F)c1cc(NC(=S)Nc2ccccc2)cc(C(F)(F)F)c1,survival at 24 h,[4],100%
same,MIC50,[1],> 275 µM
same,MIC80,[1],> 275 µM
same,MIC90,[1],> 275 µM
same,survival at 24 h,[5],100%
same,survival at 48 h,[7],100%
same,survival at 72 h,[8],100%
same,MIC50,[2],51.5 µM
same,MIC80,[2],103 µM
same,MIC90,[2],206 µM
same,survival at 24 h,[9],100%
same,Activity,[10],Non-toxic
same,survival at 72 h,[11],100%
same,survival at 72 h,[12],100%
same,survival at 72 h,[13],100%
same,MIC,[3],inactive
same,survival at 48 h,[14],100%
same,survival at 24 h,[15],100%
same,survival at 48 h,[16],100%
same,survival at 48 h,[17],100%
same,survival at 24 h,[18],100%
same,survival at 72 h,[19],100%
same,survival at 48 h,[20],100%
CCNC(=S)Nc1cc(C(F)(F)F)cc(C(F)(F)F)c1,MIC50,[1],> 316 µM
same,MIC90,[1],> 316 µM
same,MIC50,[2],158 µM
same,MIC90,[2],> 316 µM
same,MIC,[3],inactive
CCC1CN2CCC1C[C@@H]2[C@@H](Oc1nc(-c2ccccc2)nc(O[C@@H](c2ccnc3ccc(OC)cc23)[C@H]2CC3CCN2CC3CC)c1-c1ccccc1)c1ccnc2ccc(OC)cc12 (stereo partly drawn),MIC90,[1],> 200 µM
same,MIC90,[2],> 200 µM
same,MIC,[3],inactive
CN(C)CCNC(=S)Nc1cc(C(F)(F)F)cc(C(F)(F)F)c1,MIC,[1],inactive
same,MIC,[2],inactive
same,MIC,[3],inactive
C=CC1CN2CCC1CC2[C@H](OCc1ccccc1)c1ccnc2ccc(OC)cc12 (stereo partly drawn),MIC90,[1],> 200 µM
same,MIC90,[2],> 200 µM
same,MIC,[3],inactive
C=C[C@H]1CN2CC[C@H]1C[C@H]2[C@@H](N)c1ccnc2ccc(OC)cc12,MIC50,[1],> 309 µM
same,MIC90,[1],> 309 µM
same,MIC50,[2],> 309 µM
same,MIC90,[2],309 µM
same,MIC,[3],inactive
C=CC1CN2CCC1CC2[C@@H](Oc1cc(C)c2ccccc2n1)c1ccnc2ccc(OC)cc12 (stereo partly drawn),MIC90,[1],115 µM
same,MIC90,[2],> 200 µM
same,MIC,[3],inactive
C=C[C@H]1CN2CC[C@H]1C[C@H]2[C@@H](NC(=S)Nc1ccccc1)c1ccnc2ccc(OC)cc12,survival at 24 h,[4],100%
same,MIC50,[1],54.6 µM
same,MIC90,[1],164 µM
same,survival at 24 h,[5],100%
same,survival at 48 h,[7],100%
same,survival at 72 h,[8],100%
same,MIC50,[2],40.9 µM
same,MIC90,[2],81.8 µM
same,survival at 24 h,[9],100%
same,Activity,[10],Non-toxic
same,survival at 72 h,[11],100%
same,survival at 72 h,[12],100%
same,survival at 72 h,[13],100%
same,MIC,[3],inactive
same,survival at 48 h,[14],100%
same,survival at 24 h,[15],100%
same,survival at 48 h,[16],100%
same,survival at 48 h,[17],100%
same,survival at 24 h,[18],100%
same,survival at 72 h,[19],100%
same,survival at 48 h,[20],100%
CCC1CN2CCC1C[C@H]2[C@@H](Oc1ccc(O[C@@H](c2ccnc3ccc(OC)cc23)[C@@H]2CC3CCN2CC3CC)c2c1C(=O)c1ccccc1C2=O)c1ccnc2ccc(OC)cc12 (stereo partly drawn),MIC82,[1],124.9 µM
same,MIC90,[2],> 200 µM
same,MIC,[3],inactive
CN[C@@H](CC(C)C)C(=O)N[C@H]1C(=O)N[C@@H](CC(N)=O)C(=O)N[C@H]2C(=O)N[C@H]3C(=O)N[C@H](C(=O)N[C@@H](C(=O)O)c4cc(O)cc(O)c4-c4cc3ccc4O)[C@H](O)c3ccc(c(Cl)c3)Oc3cc2cc(c3O[C@H]2O[C@@H](CO)[C@H](O)[C@@H](O)[C@@H]2O[C@@H]2C[C@@](C)(N)[C@@H](O)[C@@H](C)O2)Oc2ccc(cc2Cl)[C@H]1O [listing 2 of 2 here],MIC50,[1],1.58 µM
same,MIC80,[1],3.16 µM
same,MIC90,[1],4.21 µM
same,MIC50,[2],1.58 µM
same,MIC80,[2],2.1 µM
same,MIC90,[2],4.21 µM
CN(C)[C@@H]1CCCC[C@H]1NC(=S)Nc1cc(C(F)(F)F)cc(C(F)(F)F)c1,MIC80,[1],90.8 µM
same,MIC50,[6],21.5 µM
same,MIC90,[6],32.2 µM
same,MIC50,[2],23.8 µM
same,MIC80,[2],90.8 µM
same,MIC90,[2],120 µM
same,MIC,[3],inactive
CCC1CN2CCC1CC2[C@@H](Oc1cc2ccccc2c2ccccc12)c1ccnc2ccc(OC)cc12 (stereo partly drawn),MIC90,[1],> 200 µM
same,MIC90,[2],> 200 µM
same,MIC,[3],inactive
